Read-outs that look alike come from different tables or passages of the source.
Key:
hepatitis B virus (HBV) [1] = assay: Mouse model of HBV (pHBV1.3 hydrodynamic injection), serum HBV DNA quantitative PCR; type: in vivo, NOD.CB17-Prkdc^scid/J mice
Method: On Day −7, 10 micrograms of the plasmid pHBV1.3 (as per Guidotti, L., et al., Journal of Virology, 1995, 69(10): 6158-6169) was administered to NOD.CB17-Prkdc^scid/J mice via hydrodynamic injection (HDI; rapid 1.6 mL injection into the tail vein). […] As a readout of the anti-HBV effect of various treatments, serum HBV DNA concentration in mice was measured from total extracted DNA using a quantitative PCR assay (primer/probe sequences from Tanaka, Y., et al., Journal of Medical Virology, 2004, 72: 223-229).
Animals were treated with Compound 3 as follows: Starting on Day 0, a 50 mg/kg or 100 mg/kg dosage of Compound 3 was administered orally to animals on a twice-daily frequency for a total of fourteen doses between Days 0 and 7. Compound 3 was dissolved in a co-solvent formulation for administration. Negative control animals were administered either the co-solvent formulation alone, or saline. Animals were treated with lipid nanoparticle (LNP)-encapsulated HBV-targeting siRNAs as follows: On Day 0, an amount of test article equivalent to 0.1 mg/kg siRNA was administered intravenously.
The effect of these treatments was determined by collecting blood on Days 0 (pre-treatment), 4 & 7 and analyzing it for serum HBV DNA content.
Animals were treated with Compound 3 as follows: Starting on Day 0, a 100 mg/kg dosage of Compound 3 was administered orally to animals on a twice-daily frequency for a total of fourteen doses between Days 0 and 7. Compound 3 was dissolved in a co-solvent formulation for administration. Negative control animals were administered either the co-solvent formulation alone, or saline. Animals were treated with ETV as follows: Starting on Day 0, either a 100 ng/kg or a 300 ng/kg dosage of ETV was administered orally to animals on a once-daily frequency for a total of seven doses between Days 0 and 6. ETV was dissolved in DMSO to 2 mg/mL and then diluted in saline for administration.
The effect of these treatments was determined by collecting blood on Days 0 (pre-treatment), 4 & 7 and analyzing it for serum HBV DNA content. Samples with Ct values below the lower limit of quantitation (LLOQ) were set to one-half LLOQ for calculation of group means.

hepatitis B virus (HBV) [2] = assay: Humanized liver chimeric mouse model of chronic HBV infection, serum HBV DNA by quantitative PCR; type: in vivo; settings: mean
Method: This work was conducted in a well-established humanized liver chimeric mouse model of chronic hepatitis B virus (HBV) infection (Tsuge et al., Hepatology, 42(5), 1046-54 (2005)). A persistent level of HBV infection was established in the animals prior to the treatment phase which started at Day 0.
The anti-HBV effects were assessed based on serum HBsAg levels using the GS HBsAg EIA 3.0 enzyme linked immunosorbent assay kit from Bio-Rad Laboratories as per manufacturer instructions; and serum HBV DNA levels measured from total extracted DNA using a quantitative PCR assay (primer/probe sequences from Tanaka et al., Journal of Medical Virology, 72, 223-229 (2004)).

[3] = test system: D type HBV in primary human hepatocytes (HBsAg); assay: microbe, parasite or virus in culture; type: cell-based; settings: Hepatitis B virus, Hepatocyte
In short: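 PHHs isolated by liver perfusion and Percoll, infected with genotype D HBV on day 1; compounds added day 2 and refreshed every other day. Supernatant HBsAg on day 8 by ELISA, % inhibition vs DMSO control. Seven 3-fold concentrations in triplicate; combinations as 5×5 matrix.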

[4] = Day 0 (start of treatment), SEM in the line below
[5] = Day 7, Compound 3 oral 100 mg/kg twice daily, SIRNA-NP iv 3 mg/kg every 2 weeks, ETV oral 1.2 μg/kg daily, pegIFN α-2a sc 30 μg/kg twice a week

CC[C@@H](C)NS(=O)(=O)c1ccc(F)c(C(=O)Nc2ccc(F)c(F)c2)c1 [Compound 3]
Serum HBV DNA, % of individual pre-treatment baseline (Day 0) (hepatitis B virus (HBV) [1]; Example 2, Day 4, Compound 3 50 mg/kg oral twice daily, mean ± SEM): 13 ± 4% | Serum HBV DNA, % of individual pre-treatment baseline (Day 0) (hepatitis B virus (HBV) [1]; Example 2, Day 4, Compound 3 100 mg/kg oral twice daily): 8.6 ± 1.5% | Serum HBV DNA, % of individual pre-treatment baseline (Day 0) (hepatitis B virus (HBV) [1]; Example 2, Day 7, Compound 3 50 mg/kg oral twice daily): 33 ± 9% | Serum HBV DNA, % of individual pre-treatment baseline (Day 0) (hepatitis B virus (HBV) [1]; Example 2, Day 7, Compound 3 100 mg/kg oral twice daily): 12 ± 5% | Serum HBV DNA, % of individual pre-treatment baseline (Day 0) (hepatitis B virus (HBV) [1]; Example 3, Day 4, Compound 3 100 mg/kg oral twice daily, mean ± SEM): 9.3 ± 2.5% | Serum HBV DNA, % of individual pre-treatment baseline (Day 0) (hepatitis B virus (HBV) [1]; Example 3, Day 7, Compound 3 100 mg/kg oral twice daily): 1.2 ± 0.3% | Serum HBV DNA (hepatitis B virus (HBV) [2]; [4]): 1.70E+08 Copies/mL | Serum HBV DNA (hepatitis B virus (HBV) [2]; [5]): 1.33E+07 Copies/mL | Serum HBV DNA (hepatitis B virus (HBV) [2]; Day 14, same dosages): 1.28E+07 Copies/mL | Serum HBV DNA (hepatitis B virus (HBV) [2]; Day 21, same dosages): 1.02E+07 Copies/mL | Serum HBV DNA (hepatitis B virus (HBV) [2]; Day 28, same dosages): 1.17E+07 Copies/mL | EC50 ([3]; 456 h, read-out: Inhibitor B EC50): 7.79 µM | EC50 ([3]; 576 h, read-out: Inhibitor B EC50 HBsAg): 7.79 µM | inhibition at 0.06173 µM ([3]; read-out: AVERAGE % INHIBITION HBsAg, COMPOUND 3 61.73 nM alone (Table 19b)): -20% | inhibition at 0.06864 µM ([3]; read-out: AVERAGE % INHIBITION HBsAg, COMPOUND 3 68.64 nM alone (Table 20b)): -16.4% | inhibition at 0.18519 µM ([3]; read-out: AVERAGE % INHIBITION HBsAg, COMPOUND 3 185.19 nM alone (Table 19b)): -17.3% | inhibition at 0.20593 µM ([3]; read-out: AVERAGE % INHIBITION HBsAg, COMPOUND 3 205.93 nM alone (Table 20b)): -21.6% | inhibition at 0.55556 µM ([3]; read-out: AVERAGE % INHIBITION HBsAg, COMPOUND 3 555.56 nM alone (Table 19b)): -14% | inhibition at 0.61778 µM ([3]; read-out: AVERAGE % INHIBITION HBsAg, COMPOUND 3 617.78 nM alone (Table 20b)): -5.12% | inhibition at 1.66667 µM ([3]; read-out: AVERAGE % INHIBITION HBsAg, COMPOUND 3 1666.67 nM alone (Table 19b)): 1.44% | inhibition at 1.85333 µM ([3]; read-out: AVERAGE % INHIBITION HBsAg, COMPOUND 3 1853.33 nM alone (Table 20b)): 14.6% | inhibition at 5 µM ([3]; read-out: AVERAGE % INHIBITION HBsAg, COMPOUND 3 5000.00 nM alone (Table 19b)): 28.2% | inhibition at 5.56 µM ([3]; read-out: AVERAGE % INHIBITION HBsAg, COMPOUND 3 5560.00 nM alone (Table 20b)): 43.8% | inhibition at 61.73 µM ([3]; read-out: AVERAGE % INHIBITION HBsAg, COMPOUND 3 61.73 μM alone): -5.49% | inhibition at 185.19 µM ([3]; read-out: AVERAGE % INHIBITION HBsAg, COMPOUND 3 185.19 μM alone): -1.46% | inhibition at 555.56 µM ([3]; read-out: AVERAGE % INHIBITION HBsAg, COMPOUND 3 555.56 μM alone): 4.63% | EC50 ([3]; read-out: Inhibitor EC50): 7.79 µM

C=C1[C@H](CO)[C@@H](O)C[C@@H]1n1cnc2c(=O)[nH]c(N)nc21 [Entecavir]
Serum HBV DNA, % of individual pre-treatment baseline (Day 0) (hepatitis B virus (HBV) [1]; Example 3, Day 4, ETV 100 ng/kg oral once daily): 21 ± 5% | Serum HBV DNA, % of individual pre-treatment baseline (Day 0) (hepatitis B virus (HBV) [1]; Example 3, Day 4, ETV 300 ng/kg oral once daily): 1.6 ± 0.3% | Serum HBV DNA, % of individual pre-treatment baseline (Day 0) (hepatitis B virus (HBV) [1]; Example 3, Day 7, ETV 100 ng/kg oral once daily): 3.5 ± 0.7% | Serum HBV DNA, % of individual pre-treatment baseline (Day 0) (hepatitis B virus (HBV) [1]; Example 3, Day 7, ETV 300 ng/kg oral once daily): 0.88 ± 0.31% | Serum HBV DNA (hepatitis B virus (HBV) [2]; [4]): 1.48E+08 Copies/mL | Serum HBV DNA (hepatitis B virus (HBV) [2]; [5]): 2.35E+07 Copies/mL | Serum HBV DNA (hepatitis B virus (HBV) [2]; Day 14, same dosages): 1.38E+07 Copies/mL | Serum HBV DNA (hepatitis B virus (HBV) [2]; Day 21, same dosages): 1.35E+07 Copies/mL | Serum HBV DNA (hepatitis B virus (HBV) [2]; Day 28, same dosages): 9.33E+06 Copies/mL

From US20220265817A1, “THERAPEUTIC COMPOSITIONS AND METHODS FOR TREATING HEPATITIS B” (priority 2017, published 2022)
